By GI50 is commonly meant the concentration giving 50% growth inhibition. High values mean lower sensitivity of the cells, low ones greater sensitivity of the cells.

Calls of active or inactive are those of the source. The calls are words filed in the database; no cut-off is given here.

These results are taken from ChEMBL document CHEMBL3046019, “Prenylated xanthones: antiproliferative effects and enhancement of the growth inhibitory action of 4-hydroxytamoxifen in estrogen receptor-positive breast cancer cell line” (2012).

The subject of assay [1] is MCF7. Briefly: Antiproliferative activity against estrogen receptor positive Homo sapiens (human) MCF7 cells in complete medium after 48 hr by SRB assay. It counts as functional, cell-based. A general note: Sulforhodamine B stains cellular protein and so reports cell mass.
In assay [2] the test system is MDA-MB-231. Briefly: Growth inhibition of estrogen receptor negative Homo sapiens (human) MDA-MB-231 cells after 48 hr by [3H]-thymidine incorporation assay. It counts as functional. (In general: Incorporation of labelled thymidine or its analogues reports DNA synthesis.)
Assay [3] concerns MCF7. Kind of assay: Antiproliferative activity against estrogen receptor positive Homo sapiens (human) MCF7 cells after 48 hr by SRB assay. It counts as functional, cell-based.
The subject of assay [4] is MCF7. Kind of assay: Antiproliferative activity against estrogen receptor positive Homo sapiens (human) MCF7 cells at 0.05 uM after 48 hr by SRB assay. The assay is classed as functional, cell-based.
The test system of assay [5] is NCI-H460. Briefly: Growth inhibition of Homo sapiens (human) NCI-H460 cells after 48 hr by [3H]-thymidine incorporation assay. The assay is classed as functional.
For assay [6], the system named is MCF7. Briefly: Antiproliferative activity against estrogen receptor positive Homo sapiens (human) MCF7 cells in steroid free medium after 48 hr by SRB assay. It counts as functional, cell-based.
The test system of assay [7] is MCF7. Briefly: Growth inhibition of estrogen receptor positive Homo sapiens (human) MCF7 cells after 48 hr by [3H]-thymidine incorporation assay. It counts as functional.
The subject of assay [8] is MDA-MB-231. Kind of assay: Antiproliferative activity against estrogen receptor negative Homo sapiens (human) MDA-MB-231 cells after 48 hr by SRB assay. The assay is classed as functional, cell-based.
Assay [9] relates to MDA-MB-231. Kind of assay: Antiproliferative activity against estrogen receptor negative Homo sapiens (human) MDA-MB-231 cells at 0.05 uM after 48 hr by SRB assay. The assay is classed as functional, cell-based.
Assay [10] deals with MCF7. Briefly: Antiproliferative activity against estrogen receptor positive Homo sapiens (human) MCF7 cells in steroid free medium after 48 hr by SRB assay in presence of ER antagonist 4-OHT. It counts as functional, cell-based.

As for `CC1(C)CCc2cc3c(=O)c4ccccc4oc3c(O)c2O1` [DIHYDRO-12-HYDROXY-2,2-DIMETHYL-2H,6H-PYRANO[3,2-B]XANTHEN-6-ONE], the Activity entry in assay [1], in assay [3], in assay [6] and in assay [8] was “Dose-dependent effect” throughout. Further, the GI50 turned out to be 29 µM in assay [2], 22 µM in assay [5] and 5.3 µM in [7]. The result in [4], in assay [9] and in [10] was Active.

As to `CC(C)=CCOc1ccc2c(=O)c3ccccc3oc2c1O`, the Activity entry in [1], in [3], in [6] and in assay [8] was “Dose-dependent effect” throughout. Further, the GI50 was determined as 29.1 µM in assay [2], 20.4 µM in [5] and 14.2 µM in assay [7]. In addition, the outcome in assay [4] and in [9] was Active.

Take `CC(C)=CCOc1ccc2c(=O)c3ccccc3oc2c1OCC=C(C)C`: the GI50 in assay [2] was 39 µM; in [5], 30.7 µM; in assay [7], 21.8 µM.
